These results are taken from the supplement of paper PMC8149375.

Each structure is given as a SMILES string.

Conditions in all cases: treatment: drug + dasatinib (fixed dose, not stated); 5 days
The subject of experiment [1] is ACHN. In words: AUC of dose-response viability curve, drug + dasatinib, normalised to DMSO (arbitrary (AUC of normalised viability)); higher = less growth inhibition. As to the method: (§1)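 Primary HTS combination arm: 8 RCC cell lines treated with 8 doses (up to 10 uM) of each library drug plus a fixed dose of dasatinib (dose not stated) for 5 days; viability read by CellTiter-Glo and normalised to DMSO. GI50 was fitted with XLfit, AUC is the area under the dose-response curve, and minimum viability is the lowest fraction of DMSO viability across doses.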

Experiment [2] deals with CAKI-1. The experiment is described as above. As to the method:
as §1

In experiment [3] the test system is SN12C. The experiment is described as above. As to the method: as §1
In experiment [4] the test system is 786-O. The experiment is described as above. As to the method: as §1
For experiment [5], the system named is UO-31. The experiment is described as above. As to the method: as §1
The test system of experiment [6] is A498. Described as above. As to the method:
as §1

For experiment [7], the system named is 769-P. The description is as above. The procedure: as §1
For experiment [8], the system named is TK-10. Described as above. The procedure:
as §1

The subject of experiment [9] is ACHN. The experiment is described as follows: GI50 of drug in presence of dasatinib; higher = less potent. The procedure:
as §1

In experiment [10] the test system is CAKI-1. The experiment is described as above. As to the method:
as §1

In experiment [11] the test system is SN12C. The experiment is described as above. The procedure:
as §1

Experiment [12] has as its system 786-O. Described as above. As to the method: as §1
Experiment [13] has as its system UO-31. The description is as above. The procedure:
as §1

Experiment [14] deals with A498. The experiment is described as above. The procedure:
as §1

For experiment [15], the system named is 769-P. Described as above. As to the method:
as §1

Experiment [16] relates to TK-10. Described as above. As to the method:
as §1

Experiment [17] deals with ACHN. In words: minimum viability across doses, drug + dasatinib, relative to DMSO (fraction); higher = less growth inhibition. The procedure:
as §1

Experiment [18] deals with CAKI-1. Described as above. The procedure: as §1
The subject of experiment [19] is SN12C. Described as above. The procedure:
as §1

The test system of experiment [20] is 786-O. The experiment is described as above. The procedure: as §1
The subject of experiment [21] is UO-31. Described as above. As to the method:
as §1

Experiment [22] has as its system A498. The experiment is described as above. As to the method:
as §1

Experiment [23] has as its system 769-P. Described as above. The procedure: as §1
Experiment [24] deals with TK-10. Described as above. The procedure: as §1

Regarding `Cn1cnc(-c2cc3nccc(Oc4ccc(NC(=S)NC(=O)Cc5ccccc5)cc4F)c3s2)c1` [MGCD-265] + Cc1nc(Nc2ncc(C(=O)Nc3c(C)cccc3Cl)s2)cc(N2CCN(CCO)CC2)n1 [dasatinib], the “AUC of dose-response viability curve” value in the experiment with ACHN [1] was found to be 2.13; in the experiment on CAKI-1 [2], 2.21; in the experiment on SN12C [3] it was 2.38; with 786-O [4] it was 2.64; in the experiment on UO-31 [5], 3.44; in the experiment on A498 [6] it was 3.49. Moreover, the entries for the “AUC of dose-response viability curve” value in the experiment on 769-P [7] and with TK-10 [8] were 2.39 and 2.82, respectively. Besides, the GI50 of drug is 2.83 µM with ACHN [9]; 3.63 µM with CAKI-1 [10]; greater than 10 µM with SN12C [11]; greater than 10 µM with 786-O [12]; 5.72 µM with UO-31 [13]; greater than 10 µM with A498 [14]. Further, the GI50 of drug in the experiment with 769-P [15] and with TK-10 [16] was greater than 10 µM in each case. For the same compound, the “minimum viability across doses” value with ACHN [17] was found to be 0.44; in the experiment on CAKI-1 [18], 0.256; in the experiment with SN12C [19] it was 0.515; in the experiment on 786-O [20], 0.646; with UO-31 [21], 0.107; with A498 [22] it was 0.676. Besides, the “minimum viability across doses” value in the experiment on 769-P [23] worked out at 0.557; with TK-10 [24] it was 0.727.
Take `Cc1cc2c(F)c(Oc3ncnn4cc(OC[C@@H](C)O)c(C)c34)ccc2[nH]1` + Cc1nc(Nc2ncc(C(=O)Nc3c(C)cccc3Cl)s2)cc(N2CCN(CCO)CC2)n1 [dasatinib]: the “AUC of dose-response viability curve” value came out at 1.8 in the experiment with ACHN [1]; 2.3 in the experiment on CAKI-1 [2]; 2.39 with SN12C [3]; 2.65 with 786-O [4]; 3.43 in the experiment with UO-31 [5]; 3.38 in the experiment on A498 [6]. Further, the “AUC of dose-response viability curve” value in the experiment with 769-P [7] was determined as 2.59; in the experiment on TK-10 [8], 2.68. Further, the GI50 of drug was 1.04 µM with ACHN [9]; 6.47 µM with CAKI-1 [10]; greater than 10 µM with SN12C [11]; greater than 10 µM with 786-O [12]; greater than 10 µM in the experiment with UO-31 [13]; greater than 10 µM with A498 [14]. The GI50 of drug in the experiment with 769-P [15] and in the experiment with TK-10 [16] was greater than 10 µM each time. The “minimum viability across doses” value amounted to 0.343 in the experiment with ACHN [17]; 0.179 with CAKI-1 [18]; 0.621 with SN12C [19]; 0.656 in the experiment on 786-O [20]; 0.528 in the experiment with UO-31 [21]; 0.789 in the experiment on A498 [22]. Also, the “minimum viability across doses” value in the experiment on 769-P [23] came to 0.682; in the experiment with TK-10 [24], 0.693.
With `CN(C[C@@H]1COCCO1)S(=O)(=O)Nc1ccc2ccc3ncc(-c4cnn(C)c4)cc3c(=O)c2c1` [MK-2461] + Cc1nc(Nc2ncc(C(=O)Nc3c(C)cccc3Cl)s2)cc(N2CCN(CCO)CC2)n1 [dasatinib], the “AUC of dose-response viability curve” value amounted to 1.23 in the experiment on ACHN [1]; 1.71 in the experiment with CAKI-1 [2]; 2.14 with SN12C [3]; 4.08 in the experiment on 786-O [4]; 5.47 in the experiment on UO-31 [5]; 4.48 in the experiment with A498 [6]. For the same compound, the “AUC of dose-response viability curve” value in the experiment on 769-P [7] came out at 2.49; in the experiment on TK-10 [8], 2.19. In addition, the GI50 of drug with ACHN [9] is 0.0109 µM; with CAKI-1 [10], 0.45 µM; in the experiment with SN12C [11] it was greater than 10 µM; in the experiment on 786-O [12], greater than 10 µM; in the experiment on UO-31 [13] it was 5.33 µM; in the experiment on A498 [14], greater than 10 µM. Further, the GI50 of drug came out at 6.28 µM with 769-P [15] and 2.91 µM with TK-10 [16]. Further, the “minimum viability across doses” value in the experiment on ACHN [17] is 0.121; in the experiment on CAKI-1 [18], 0.0412; with SN12C [19], 0.179; in the experiment with 786-O [20] it was 0.638; with UO-31 [21] it was 0.227; in the experiment with A498 [22] it was 0.919. Also, the “minimum viability across doses” value with 769-P [23] stood at 0.362; in the experiment with TK-10 [24], 0.287.
In the case of `O=C1NC(=O)C(=Cc2ccc(-c3ccc(F)cc3)o2)S1` (stereo in doubt) + Cc1nc(Nc2ncc(C(=O)Nc3c(C)cccc3Cl)s2)cc(N2CCN(CCO)CC2)n1 [dasatinib], the “AUC of dose-response viability curve” value is 2.28 in the experiment with ACHN [1]; 2.46 in the experiment on CAKI-1 [2]; 2.4 in the experiment with SN12C [3]; 2.24 in the experiment on 786-O [4]; 3.43 in the experiment with UO-31 [5]; 3.83 with A498 [6]. The results for the “AUC of dose-response viability curve” value in the experiment with 769-P [7] and in the experiment with TK-10 [8] were 2.42 and 2.37, respectively. Besides, the GI50 of drug in the experiment with ACHN [9], in the experiment with CAKI-1 [10], with SN12C [11], in the experiment with 786-O [12], with UO-31 [13] and with A498 [14] was greater than 10 µM each time. Moreover, the GI50 of drug with 769-P [15] and in the experiment on TK-10 [16] was greater than 10 µM throughout. The “minimum viability across doses” value is 0.607 with ACHN [17]; 0.638 with CAKI-1 [18]; 0.655 in the experiment on SN12C [19]; 0.519 in the experiment with 786-O [20]; 0.657 in the experiment on UO-31 [21]; 0.903 with A498 [22]. Besides, the “minimum viability across doses” value in the experiment on 769-P [23] is 0.594; in the experiment on TK-10 [24], 0.633.
